Source: patent US7816328B2, “Substituted fused heterocyclic C-glycosides” (Janssen Pharmaceutica NV, priority 2003, dated 2010)

Tests used:
human SGLT1 = target: T1, human SGLT1 (Homo sapiens, UniProt P13866); test: Cell-based assay for sodium-dependent glucose transport (14C-AMG uptake), CHO-K1 cells stably expressing human SGLT1; conditions: Na-dependent 14C-AMG uptake
T1 construct: expressed in transfected cells; host or cells: CHO-K1
T1 sequence (P13866 1-664): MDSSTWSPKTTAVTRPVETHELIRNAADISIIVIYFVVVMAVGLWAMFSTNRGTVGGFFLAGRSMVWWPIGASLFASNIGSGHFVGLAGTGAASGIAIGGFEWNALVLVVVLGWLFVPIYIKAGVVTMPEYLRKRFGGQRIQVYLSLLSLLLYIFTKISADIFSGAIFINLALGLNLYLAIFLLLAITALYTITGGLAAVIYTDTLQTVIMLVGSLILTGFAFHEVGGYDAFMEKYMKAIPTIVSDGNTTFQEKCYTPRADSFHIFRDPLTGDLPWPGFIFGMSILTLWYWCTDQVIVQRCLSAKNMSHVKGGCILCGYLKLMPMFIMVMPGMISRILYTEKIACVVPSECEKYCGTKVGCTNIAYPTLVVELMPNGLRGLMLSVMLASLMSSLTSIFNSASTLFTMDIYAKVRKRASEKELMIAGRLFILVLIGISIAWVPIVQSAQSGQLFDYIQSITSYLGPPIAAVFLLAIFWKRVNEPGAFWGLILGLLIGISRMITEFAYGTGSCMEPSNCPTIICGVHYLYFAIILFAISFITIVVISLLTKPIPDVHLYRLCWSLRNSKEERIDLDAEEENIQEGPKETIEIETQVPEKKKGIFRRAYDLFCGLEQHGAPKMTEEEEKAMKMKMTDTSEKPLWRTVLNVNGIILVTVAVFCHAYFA
Method: (§1) Cloning of the human SGLT1 and human SGLT2 cDNAs and construction of the mammalian expression vector: The human SGLT1 cDNA (Genbank M24847) was cloned from human small intestine. Human SGLT2 cDNA (Genbank M95549) was cloned from human kidney. Both full cDNAs were subcloned into pcDNA and sequenced to verify the integrity of the construct.
(§2) Generation of CHO-K1 cells stably expressing human SGLT1 or human SGLT2: Transfection of CHO-K1 cells was performed using DMRIE-C reagent (Life Technologies, Gaithersburg, Md.). Transfectants were then selected in the presence of the antibiotic G418 (Gibco-BRL, Grand Island, N.Y.) at 400 μg/ml. Individual clones were then characterized using the functional assay described below.
(§3) Cell-based assay for sodium-dependent glucose transport: Cell lines stably expressing human SGLT1 or SGLT2 were then used for functional analysis of Na+-dependent glucose uptake. Briefly, cells were plated at a density of 65,000 cells per well in a 96-well plate and allowed to grow for 48 hours. Cells were subsequently washed one time with Assay Buffer (50 mM HEPES pH 7.4, 20 mM Tris, 5 mM KCl, 1 mM MgCl2, 1 mM CaCl2 and 137 mM NaCl) and treated with compound in the absence or presence of NaCl for 15 minutes. Cells were then labeled with ^14C-α-methylglucopyranoside (AMG, Sigma, St. Louis, Mo.) a non-metabolizable glucose analog specific for sodium-dependent glucose transporters as previously described (Peng, H. and Lever J. E. Post-transcriptional regulation of Na^+/glucose cotransporter (SGLT1) gene expression in LLC-PK1 cells. J Biol Chem 1995; 270:20536-20542). After 2 hours the labelled cells were washed three times with ice-cold PBS. After aspiration, cells were solubilized using Microscint 20 (Packard, Meriden, Conn.) and Na-dependent ^14C-AMG uptake was quantified by measuring radioactivity.
(§4) Plates were counted in a TopCount (Packard, Meriden, Conn.). Results are reported as the % inhibition or IC50 value from a representative experiment. Variability for the functional assay was typically within 20%.

human SGLT2 = target: T2, human SGLT2 (Homo sapiens, UniProt P31639); test: Cell-based assay for sodium-dependent glucose transport (14C-AMG uptake), CHO-K1 cells stably expressing human SGLT2; conditions: Na-dependent 14C-AMG uptake; for IC50: read-out: CHOK-SGLT2 IC50; for inhibition at 10 µM: read-out: CHOK-SGLT2 % Inh at 10 uM
T2 construct: expressed in transfected cells; host or cells: CHO-K1
T2 sequence (P31639 1-672): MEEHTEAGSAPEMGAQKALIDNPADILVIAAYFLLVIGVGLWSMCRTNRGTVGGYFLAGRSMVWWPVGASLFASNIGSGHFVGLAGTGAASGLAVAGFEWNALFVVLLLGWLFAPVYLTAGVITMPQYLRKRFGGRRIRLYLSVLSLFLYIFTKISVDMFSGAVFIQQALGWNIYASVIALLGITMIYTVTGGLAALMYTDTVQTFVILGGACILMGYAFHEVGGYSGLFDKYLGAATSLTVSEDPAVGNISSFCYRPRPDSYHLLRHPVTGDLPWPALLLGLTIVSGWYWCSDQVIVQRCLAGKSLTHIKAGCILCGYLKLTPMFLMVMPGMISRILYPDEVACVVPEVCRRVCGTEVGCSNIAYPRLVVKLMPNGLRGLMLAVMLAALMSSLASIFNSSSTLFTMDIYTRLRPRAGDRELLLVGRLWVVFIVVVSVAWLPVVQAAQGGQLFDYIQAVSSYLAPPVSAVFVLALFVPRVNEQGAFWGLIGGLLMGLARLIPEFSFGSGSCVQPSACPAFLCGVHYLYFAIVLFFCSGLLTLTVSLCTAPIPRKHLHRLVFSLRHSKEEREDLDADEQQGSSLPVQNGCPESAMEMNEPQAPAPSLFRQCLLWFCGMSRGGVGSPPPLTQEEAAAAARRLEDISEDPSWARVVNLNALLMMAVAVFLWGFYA
Method: as §1, §2, §3, §4

CHOK-SGLT1 IC50 (uM) (human SGLT1) | IC50 (human SGLT2) | inhibition at 10 µM (human SGLT2) | SMILES
inactive | 132 ± 24 nM |  | CCc1ccc(Cc2c[nH]c3ccc([C@@H]4O[C@H](CO)[C@@H](O)[C@H](O)[C@H]4O)cc23)cc1 [Example 1, 3-(4-Ethylbenzyl)-5-(β-D-glucopyranosyl)-1H-indole]
inactive | 1390 ± 67 nM |  | COc1ccc(Cc2c[nH]c3ccc([C@@H]4O[C@H](CO)[C@@H](O)[C@H](O)[C@H]4O)cc23)cc1 [Example 2, 5-(β-D-Glucopyranosyl)-3-(4-methoxybenzyl)-1H-indole]
inactive |  | 12% | CCc1ccc(Cc2c[nH]c3cccc([C@@H]4O[C@H](CO)[C@@H](O)[C@H](O)[C@H]4O)c23)cc1 [Example 4, 3-(4-Ethylbenzyl)-4-(β-D-glucopyranosyl)-1H-indole]
inactive |  | 60% | COc1ccc(CCc2c[nH]c3ccc([C@@H]4O[C@H](CO)[C@@H](O)[C@H](O)[C@H]4O)cc23)cc1 [Example 3, 5-(β-D-Glucopyranosyl)-3-[2-(4-methoxyphenyl)-ethyl]-1H-indole]
